Consider ten compounds from patent publication US8247437B2, “N-hydroxyamide derivatives and use thereof” (Merck Serono SA, priority 2004, dated 2012).

SMILES strings stand for the structures. Read-outs that look alike come from different tables or passages of the source.

Type in all cases: biochemical
The target of one experiment is T1, gelatinase A (MMP-2) (Homo sapiens, UniProt P08253).
T1 sequence (P08253 110-660): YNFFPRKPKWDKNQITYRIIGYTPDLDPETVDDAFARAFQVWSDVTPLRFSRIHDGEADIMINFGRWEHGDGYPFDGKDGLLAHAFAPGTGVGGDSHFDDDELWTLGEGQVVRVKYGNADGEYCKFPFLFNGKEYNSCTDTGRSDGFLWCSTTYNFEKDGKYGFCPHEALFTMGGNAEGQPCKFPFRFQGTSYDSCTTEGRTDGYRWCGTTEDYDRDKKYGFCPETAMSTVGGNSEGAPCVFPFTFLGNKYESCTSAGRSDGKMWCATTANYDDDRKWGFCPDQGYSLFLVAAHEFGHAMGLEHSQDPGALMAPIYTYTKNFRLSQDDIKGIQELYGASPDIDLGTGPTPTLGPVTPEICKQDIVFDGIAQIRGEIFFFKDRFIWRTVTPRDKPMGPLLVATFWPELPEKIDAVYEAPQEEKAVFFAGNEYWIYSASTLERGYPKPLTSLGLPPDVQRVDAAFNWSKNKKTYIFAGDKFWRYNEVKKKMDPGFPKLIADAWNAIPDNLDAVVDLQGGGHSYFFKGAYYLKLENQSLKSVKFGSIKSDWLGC
Put plainly: MMP-2 enzyme inhibition assay (coumarin-labelled peptide substrate McaPLGLDpaAR). Conditions: read-out: MMP-2 IC50. How it is done: (§1) Stock solutions were made up as follows: Assay Butter: 100 mM Tris-HCl pH 7.6 is containing 100 mM NaCl, 10 mM CaCl2, and 0.05% Brij 35.
(§2) Substrate: 0.4 mM McaPLGLDpaAR (from Bachem) (0.437 mg/ml) stock solution in 100% DMSO (stored at −20° C.). Dilute to 8 μM in assay butter.
(§3) Enzyme: Recombinant human 92 kDa gelatinase (MMP-9; APMA (4-aminophenyl mercuric acetate)-activated if necessary) appropriately diluted in assay butter.
(§4) Test Compounds were prepared initially as 10 mM compound solution in 100% DMSO, diluted to 1 mM in 100% DMSO, then serially diluted 3-fold in 100% DMSO across columns 1-10 of a 96-well microtitre plate Assay concentration range, 100 μM (column 1) to 5.1 nM (column 10).
(§5) The assay was performed in a total volume of 100 μL per well in 96-well microfilm plates. Activated enzyme (20 μL) was added to the wells followed by 20 μL of assay butter. Appropriate concentrations of test compounds dissolved in 10 μL of DMSO were then added followed by 50 μL of McaPLGLDpaAR (8 μM, prepared by dilution of DMSO stock in assay butter). For each as say ten concentrations of test compound were examined in duplicate. Control wells lack either enzyme or test compound. The reactions were incubated at 37° C. for 2 hours. The fluorescence at 405 nm was measured immediately with an SLT Fluostar fluorometer (SL T Labinstruments GmbH, Grödig, Austria) using 320 nm excitation, without stopping the reaction.
(§6) The effect of the test compound was determined from the dose response curve generated by the 10 duplicate concentrations of inhibitor. The IC50 (the concentration of compound required to give a 50% decrease in enzyme activity) was obtained by fitting data to the equation, Y=a+((b−a)/(1+(c/X)^d)). (Y=inhibition achieved for a particular dose; X=the dose in nM; a=minimum y or zero % inhibition; b=maximum y or 100% inhibition; c=is the IC50; d=is the slope). The result was rounded to one significant figure.
Compounds of the invention were tested for inhibitory activity against gelatinase A (MMP-2) in an assay using a coumarin-labelled peptide substrate, (7-methoxycoumarin-4-yl)acetyl-Pro-Leu-Gly-Leu-(3-[2,4-dinitrophenyl]-L-2,3diaminopropionyl)-Ala-Arg-NH2 (Mca PLGLDpaAR) (Knight et al, 1992, above). The protocol for this assay was as described for the MMP-9 assay above.

The target in another experiment is T2, collagenase (MMP-1) (Homo sapiens, UniProt P03956).
T2 sequence (P03956 100-469): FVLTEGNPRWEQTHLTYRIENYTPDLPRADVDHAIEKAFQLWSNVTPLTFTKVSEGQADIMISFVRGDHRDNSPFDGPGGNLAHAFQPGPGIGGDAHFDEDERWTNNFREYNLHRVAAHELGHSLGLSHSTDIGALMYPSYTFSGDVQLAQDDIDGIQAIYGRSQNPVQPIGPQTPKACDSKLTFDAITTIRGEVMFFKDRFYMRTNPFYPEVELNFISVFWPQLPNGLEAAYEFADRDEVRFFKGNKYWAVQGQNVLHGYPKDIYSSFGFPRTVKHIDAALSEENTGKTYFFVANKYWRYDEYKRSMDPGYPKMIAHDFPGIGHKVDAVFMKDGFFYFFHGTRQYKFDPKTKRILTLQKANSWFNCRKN
Description: MMP-1 enzyme inhibition assay (coumarin-labelled peptide substrate McaPLGLDpaAR). Conditions: read-out: MMP-1 IC50. How it is done:
as §1, §2, §3, §4, §5, §6
Compounds of the invention were tested for inhibitory activity against collagenase (MMP-1) in an assay using a coumarin-labelled peptide substrate, (7-methoxycoumarin-4-yl)acetyl-Pro-Leu-Gly-Leu-(3-[2,4-dinitrophenyl]-L-2,3diaminopropionyl)-Ala-Arg-NH2 (Mca PLGLDpaAR) (Knight et al, 1992, above). The protocol for this assay was as described for the MMP-9 assay above.

The next experiment addresses metalloelastase (MMP-12) (Homo sapiens, UniProt P39900). Description: MMP-12 enzyme inhibition assay (coumarin-labelled peptide substrate McaPLGLDpaAR). Conditions: read-out: MMP-12 IC50. How it is done:
as §1, §2, §3, §4, §5, §6
Compounds of the invention were tested for inhibitory activity against metalloelastase (MMP-12) in an assay using a coumarin-labelled peptide substrate, (7-methoxycoumarin-4-yl)acetyl-Pro-Leu-Gly-Leu-(3-[2,4-dinitrophenyl]-L-2,3-diaminopropionyl)-Ala-Arg-NH2 (McaPLGLDpaAR) (Knight et al, 1992, above). The protocol for this assay was as described for the MMP-9 assay above.

The target of experiment [1] is 92 kDa gelatinase (MMP-9) (Homo sapiens, UniProt P14780). Put plainly: MMP-9 enzyme inhibition assay (coumarin-labeled peptide substrate McaPLGLDpaAR). Conditions: read-out: MMP-9 IC50. As to the method: Compounds of the invention were tested for inhibitory activity against 92 kDa gelatinase (MMP-9) in an assay using a coumarin-labeled peptide substrate, (7-methoxycoumarin-4-yl)acetyl-Pro-Leu-Gly-Leu-(3-[2,4-dinitrophenyl]-L-2,3diaminopropionyl)-Ala-Arg-NH2 (McaPLGLDpaAR) (Knight et al, FEBS Lett. 1992; 263-266).
92 kDa gelatinase (MMP-9), sequence (P14780 107-707 limits assumed): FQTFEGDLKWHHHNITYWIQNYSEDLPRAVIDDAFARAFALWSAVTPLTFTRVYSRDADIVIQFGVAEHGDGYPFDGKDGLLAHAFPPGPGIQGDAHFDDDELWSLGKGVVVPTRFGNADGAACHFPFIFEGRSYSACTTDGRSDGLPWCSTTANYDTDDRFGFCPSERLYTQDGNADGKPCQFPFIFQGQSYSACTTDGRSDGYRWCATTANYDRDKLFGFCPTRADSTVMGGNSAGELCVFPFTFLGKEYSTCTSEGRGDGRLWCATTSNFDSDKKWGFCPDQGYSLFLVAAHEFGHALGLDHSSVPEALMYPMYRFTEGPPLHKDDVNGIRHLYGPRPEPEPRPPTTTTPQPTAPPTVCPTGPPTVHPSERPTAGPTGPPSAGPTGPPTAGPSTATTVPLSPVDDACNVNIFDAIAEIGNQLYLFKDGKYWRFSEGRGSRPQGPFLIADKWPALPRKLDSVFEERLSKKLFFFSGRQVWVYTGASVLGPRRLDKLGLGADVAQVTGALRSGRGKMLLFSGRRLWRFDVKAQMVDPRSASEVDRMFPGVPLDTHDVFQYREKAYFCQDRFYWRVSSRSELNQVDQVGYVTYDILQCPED
as §1, §2, §3, §4, §5, §6

Setting [2] is: Table 1, compounds of Formula (I).
[3] abbreviates: Table 2, compounds of Formula (VI).

metalloelastase (MMP-12), sequence (P39900 106-470): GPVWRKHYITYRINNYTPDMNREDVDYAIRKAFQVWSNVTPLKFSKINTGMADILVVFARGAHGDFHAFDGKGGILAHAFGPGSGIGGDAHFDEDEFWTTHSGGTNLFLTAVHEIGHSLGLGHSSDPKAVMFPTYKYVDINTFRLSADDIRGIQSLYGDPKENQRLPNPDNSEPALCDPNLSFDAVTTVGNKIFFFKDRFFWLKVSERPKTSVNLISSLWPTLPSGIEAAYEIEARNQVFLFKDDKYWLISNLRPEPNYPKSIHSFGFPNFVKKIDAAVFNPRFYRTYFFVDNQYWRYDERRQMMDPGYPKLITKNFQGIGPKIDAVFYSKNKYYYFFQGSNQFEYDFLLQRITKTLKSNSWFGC

Take `CC(C)C[C@H](C(=O)N1CCN(c2cc(C(F)(F)F)ccn2)C[C@H]1C)[C@H](O)C(=O)NO` [Example 3, (2S,3S)-N,2-dihydroxy-5-methyl-3-({(2R)-2-methyl-4-[4-(trifluoromethyl)pyridin-2-yl]piperazin-1-yl}carbonyl)hexanamide]: the IC50 at gelatinase A (MMP-2) (setting [2]) is 42 nM; on collagenase (MMP-1) (setting [2]), > 5000 nM; on metalloelastase (MMP-12) (setting [2]), 31 nM; in experiment [1] (setting [2]), 285 nM.
The corresponding values for `CC(C)C[C@H](C(=O)N1CCN(c2noc(-c3ccccc3)n2)CC1)[C@@H](O)C(=O)NO` [Example 56, (2R,3S)-N,2-dihydroxy-5-methyl-3-{[4-(5-phenyl-1,2,4-oxadiazol-3-yl)piperazin-1-yl]-carbonyl}hexanamide] are 4.8 nM, > 5000 nM, 6 nM and 41 nM.
`COc1ccc(N2CCN(C(=O)[C@@H](CC(C)C)[C@@H](O)C(=O)NO)CC2)cc1` [Example 14, (2R,3S)-N,2-dihydroxy-3-{[4-(4-methoxyphenyl)piperazin-1-yl]carbonyl}-5-methylhexanamide]: the half-inhibitory concentration (IC50) at gelatinase A (MMP-2) (setting [2]) is 89 nM; on collagenase (MMP-1) (setting [2]), > 5000 nM; on metalloelastase (MMP-12) (setting [2]), 4 nM; in experiment [1] (setting [2]), 585 nM.
The corresponding values for `CC(C)C[C@H](C(=O)N1CCN(c2ccccn2)CC1)[C@H](O)C(=O)NO` [Example 1, (2S,3S)-N,2-dihydroxy-5-methyl-3-{[4-(2-pyridinyl)-1-piperazinyl]carbonyl}hexanamide] are 3 nM, 418 nM, 4 nM and 5 nM.
On to `CCOc1ccc(CCC[C@@H](C(=O)N2CCC(Nc3ccc(O)cc3)CC2)[C@H](O)C(=O)NO)cc1` [Example 46, (2S,3R)-6-(4-ethoxyphenyl)-N,2-dihydroxy-3-({4-[(4-hydroxyphenyl)amino]piperidin-1-yl}carbonyl)hexanamide], for which the IC50 on gelatinase A (MMP-2) (setting [3]) is 179 nM; on collagenase (MMP-1) (setting [3]) it was > 5000 nM; at metalloelastase (MMP-12) (setting [3]), 34 nM; in experiment [1] (setting [3]), 133 nM.
Take `CCOc1ccc(CCCC(C(=O)N2CCN(c3ccccc3F)C[C@H]2C)[C@H](O)C(=O)NO)cc1` (mixture of isomers) [Example 9, (2S,3S)-6-(4-ethoxyphenyl)-3-{[(2R)-4-(2-fluorophenyl)-2-methylpiperazin-1-yl]carbonyl}-N,2-dihydroxyhexanamide]: the IC50 on gelatinase A (MMP-2) (setting [2]) was 136 nM; on collagenase (MMP-1) (setting [2]), > 5000 nM; on metalloelastase (MMP-12) (setting [2]), 33 nM; in experiment [1] (setting [2]), 233 nM.
`O=C(NO)[C@H](O)[C@H](CCOCc1ccccc1)C(=O)N1CCN(c2ccc(-c3ccccc3)cc2)CC1` [Example 58, 3-[(4-biphenyl-4-ylpiperazin-1-yl)carbonyl]-3,4-dideoxy-1-(hydroxyamino)-5-O-(phenylmethyl)-L-threo-pentose]: the IC50 on gelatinase A (MMP-2) (setting [2]) was 38 nM; at collagenase (MMP-1) (setting [2]), > 5000 nM; at metalloelastase (MMP-12) (setting [2]), 7 nM; in experiment [1] (setting [2]), 194 nM.
The corresponding values for `CC(C)C[C@H](C(=O)N1CCN(c2nc(-c3ccccc3)ns2)CC1)[C@H](O)C(=O)NO` [Example 2, (2S,3S)-N,2-dihydroxy-5-methyl-3-{[4-(3-phenyl-1,2,4-thiadiazol-5-yl)-1-piperazinyl]carbonyl}hexanamide] are 17 nM, 876 nM, 103 nM and 7 nM.
The corresponding values for `C[C@@H]1CN(c2ccc(OC(F)(F)F)cc2)CCN1C(=O)[C@@H](CC1CCCC1)[C@H](O)C(=O)NO` [Example 91, (2S,3S)-3-(cyclopentylmethyl)-N,2-dihydroxy-4-{(2R)-2-methyl-4-[4-(trifluoromethoxy)phenyl]piperazin-1-yl}-4-oxobutanamide] are 3 nM, 1150 nM, < 1 nM and 49 nM.
Turning to `CCOc1ccc(CCC[C@@H](C(=O)N2CCC(Oc3ccccn3)CC2)[C@H](O)C(=O)NO)cc1` [Example 22], the IC50 at gelatinase A (MMP-2) (setting [3]) was 47 nM; on collagenase (MMP-1) (setting [3]) it was > 5000 nM; at metalloelastase (MMP-12) (setting [3]), 17 nM; in experiment [1] (setting [3]), 45 nM.
